Reference: the supplement of paper PMC11208160

Assay: recombinant UMI read abundance after kanamycin selection (control-corrected) (log10(CPM+1)); higher = more efficient recombination; extreme values may be limits of the assay; sequences stand for … in AGTGCAGAGAAAATCGGCCAGTTTTCTCTGCCTGCAGTCCGCATGCCGTGGGACCCCTTGGGTTCTAACCTGTTGCCTAGATTTATGCAGCGGACTGCCTTTCTCCCAAAGTGATAAACCGG…AGGTTGGTTTCACT; site = the 11-nt donor
How it was run: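 Values are reported as log10(CPM+1), obtained by converting sequencing counts to CPM, averaging replicates and scaling by control-derived factors. The counts came from recombinant UMIs amplified by PCR across the donor–target junction. These UMIs came from a pooled Escherichia coli screen of donor and donor-binding-loop pairs for the IS621 bridge recombinase, plated with IPTG (0.07 mM) plus kanamycin or left unselected, in two replicates each.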
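Also: IS621 bridge recombinase in Escherichia coli cells against a fixed T5 target plasmid.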

Sequence | recombinant UMI read abundance (log10)
CTTCTCTCATGGACCGGTTTTCCCGGTAATCCGTATTTGCA (site CTTCTCTCTTC) | 0
AGTCTAGCATGGACCGGTTTTCCCGGTAATCCGTATTTGTT (site AGGCTAGCTAA) | 0.0213
ACAGTATCATGGACCGGTTTTCCCGGTAATCCGTATTTGCA (site ACCATATCTTG) | 1.91
CCAATCGCATGGACCGGTTTTCCCGGTAATCCGTATTTGCA (site CCAATCGCTTG) | 0
ACAGTATCATGGACCGGTTTTCCCGGTAATCCGTATTTGCA (site CCAGTACCTTG) | 0.0123
ACACAACCATGGACCGGTTTTCCCGGTAATCCGTATTTGAC (site ACACAACCTGT) | 0
CAAGTGCCATGGACCGGTTTTCCCGGTAATCCGTATTTGTA (site CAAGTGCCTTA) | 1.56
TCCTTTACATGGACCGGTTTTCCCGGTAATCCGTATTTGTT (site TCCTTTACTAA) | 0.0163
GTAGGCGCATGGACCGGTTTTCCCGGTAATCCGTATTTGCG (site GTAGCCGCTCG) | 0
TGTGCCCCATGGACCGGTTTTCCCGGTAATCCGTATTTGTA (site TGTGCCCCTTA) | 0.0922
TACAGTCCATGGACCGGTTTTCCCGGTAATCCGTATTTGCG (site TACAGTCCTCG) | 0.004
TACTTGGCATGGACCGGTTTTCCCGGTAATCCGTATTTGCT (site TACTTGTCTAG) | 0
TAGCCTTCATGGACCGGTTTTCCCGGTAATCCGTATTTGGG (site TAGCCTTCTCC) | 0.0175
AGGTTCCCATGGACCGGTTTTCCCGGTAATCCGTATTTGTG (site AGGCTCCCTCA) | 0.149
GATTGCACATGGACCGGTTTTCCCGGTAATCCGTATTTGAC (site GATTGGACTGT) | 0
GGTCCCACATGGACCGGTTTTCCCGGTAATCCGTATTTGTA (site GGTCCGACTTA) | 0.0061
TGGAAGACATGGACCGGTTTTCCCGGTAATCCGTATTTGTA (site AGGAAGACTTG) | 0.00598
AGCCGGCCATGGACCGGTTTTCCCGGTAATCCGTATTTGAT (site AGCCGGCCTAT) | 0.00427
AAGAAGACATGGACCGGTTTTCCCGGTAATCCGTATTTGCA (site ACGAAGACTTG) | 1.66
GATTGGACATGGACCGGTTTTCCCGGTAATCCGTATTTGAC (site GATTGGCCTGT) | 0
GTCGTCGCATGGACCGGTTTTCCCGGTAATCCGTATTTGCG (site GTAGTCGCTCG) | 0.0332
ACCTAGACATGGACCGGTTTTCCCGGTAATCCGTATTTGGG (site ACCTGGACTCC) | 0.0143
AGGTCCCCATGGACCGGTTTTCCCGGTAATCCGTATTTGTG (site AGGTCCCCTCA) | 0.0562
CGATAATCATGGACCGGTTTTCCCGGTAATCCGTATTTGCT (site CGATTATCTAG) | 0.415
AACCGTCCATGGACCGGTTTTCCCGGTAATCCGTATTTGTT (site AACCGTCCTAC) | 0.0168

Sequence | recombinant UMI read abundance (log10)
TTTTTGGCATGGACCGGTTTTCCCGGTAATCCGTATTTGTG (site TTTTTGGCTCA) | 0.00438
GGCAATCCATGGACCGGTTTTCCCGGTAATCCGTATTTGAA (site GGCCATCCTTT) | 0.0223
ACTGAGGCATGGACCGGTTTTCCCGGTAATCCGTATTTGAA (site ACTGAGGCTTT) | 1.73
CGGGATTCATGGACCGGTTTTCCCGGTAATCCGTATTTGCC (site CGGGAATCTGG) | 0.816
ACAGTCTCATGGACCGGTTTTCCCGGTAATCCGTATTTGCA (site ACAGTATCTTG) | 2.26
CAAGCGCCATGGACCGGTTTTCCCGGTAATCCGTATTTGCG (site CAAGCGCCTCG) | 2.05
TGGTAGCCATGGACCGGTTTTCCCGGTAATCCGTATTTGTT (site TGGTAGCCTAA) | 0.256
TTGGAGGCATGGACCGGTTTTCCCGGTAATCCGTATTTGTG (site CTGGAGGCTCA) | 0.329
CCTAGAACATGGACCGGTTTTCCCGGTAATCCGTATTTGAG (site TCTAGAACTCT) | 0.00636
CGGAAACCATGGACCGGTTTTCCCGGTAATCCGTATTTGTA (site CGGAAACCTTA) | 0
ACTAAATCATGGACCGGTTTTCCCGGTAATCCGTATTTGGC (site ACTAAATCTGC) | 0.218
CTCTAGACATGGACCGGTTTTCCCGGTAATCCGTATTTGCT (site CTCTACACTAG) | 0.119
CAAGTCACATGGACCGGTTTTCCCGGTAATCCGTATTTGGG (site CAAGTCACTCT) | 0.593
GCCACACCATGGACCGGTTTTCCCGGTAATCCGTATTTGTA (site GCCACTCCTTA) | 0.0198
CCAACTACATGGACCGGTTTTCCCGGTAATCCGTATTTGGC (site CCAACTACTGC) | 0
GTATAGGCATGGACCGGTTTTCCCGGTAATCCGTATTTGTA (site GTATAGGCTTA) | 2.22
TTTCTCTCATGGACCGGTTTTCCCGGTAATCCGTATTTGTA (site ATTCTCTCTTA) | 0.353
CCAGTATCATGGACCGGTTTTCCCGGTAATCCGTATTTGAA (site ACAGTATCTTG) | 0.128
ACAGTATCATGGACCGGTTTTCCCGGTAATCCGTATTTGCA (site ACAGCAGCTTG) | 0.00322
TAGATAGCATGGACCGGTTTTCCCGGTAATCCGTATTTGAA (site TAGGTAGCTTT) | 0.0819
AGCCTAGCATGGACCGGTTTTCCCGGTAATCCGTATTTGTT (site ACCCTAGCTAA) | 0.0311
ACCTAGACATGGACCGGTTTTCCCGGTAATCCGTATTTGGG (site ACTTAGACTCC) | 0.0151
GTGCATGCATGGACCGGTTTTCCCGGTAATCCGTATTTGAT (site GTGCATGCTAA) | 0.00938
GTGGGGGCATGGACCGGTTTTCCCGGTAATCCGTATTTGTG (site GTGGTGGCTCA) | 0.0315
AAAGGGCCATGGACCGGTTTTCCCGGTAATCCGTATTTGAG (site AAAGGGCCTCT) | 0.0224

Sequence | recombinant UMI read abundance (log10)
CCTTAGACATGGACCGGTTTTCCCGGTAATCCGTATTTGAG (site CCTTAGACTCT) | 0.0167
ATCCAATCATGGACCGGTTTTCCCGGTAATCCGTATTTGAG (site ATCCAACCTCT) | 0.0188
AATGTGTCATGGACCGGTTTTCCCGGTAATCCGTATTTGAC (site ATTGTGTCTGT) | 0.71
AATGAAGCATGGACCGGTTTTCCCGGTAATCCGTATTTGTC (site AATGAAGCTGA) | 2.09
GTTCGAGCATGGACCGGTTTTCCCGGTAATCCGTATTTGCA (site GTTCGACCTTG) | 0.0101
TATTAGGCATGGACCGGTTTTCCCGGTAATCCGTATTTGTG (site TATTCGGCTCA) | 0.00717
TCGTACTCATGGACCGGTTTTCCCGGTAATCCGTATTTGCA (site TCTTACTCTTG) | 2.29
CGGAAGTCATGGACCGGTTTTCCCGGTAATCCGTATTTGCC (site CGGGAGTCTGG) | 0.686
GCTTGCCCATGGACCGGTTTTCCCGGTAATCCGTATTTGAT (site GCGTGCCCTAT) | 0.0338
TACTTGACATGGACCGGTTTTCCCGGTAATCCGTATTTGAT (site TACTTGACTAC) | 0.015
GTTCCAACATGGACCGGTTTTCCCGGTAATCCGTATTTGTA (site GGTCCAACTTA) | 0.0991
AGTGGCCCATGGACCGGTTTTCCCGGTAATCCGTATTTGCG (site AGTGGCCCTCG) | 0.0207
AAGAATACATGGACCGGTTTTCCCGGTAATCCGTATTTGCA (site CAGAATACTTG) | 1.37
TATGTACCATGGACCGGTTTTCCCGGTAATCCGTATTTGGT (site TATGTACCTAC) | 0.011
ACAGTATCATGGACCGGTTTTCCCGGTAATCCGTATTTGCA (site ACGCTATCTTG) | 1.16
GGTACATCATGGACCGGTTTTCCCGGTAATCCGTATTTGAG (site GGTACATCTCT) | 0.66
ACAGTATCATGGACCGGTTTTCCCGGTAATCCGTATTTGCA (site GCAGAATCTTG) | 1.47
CAAGTCACATGGACCGGTTTTCCCGGTAATCCGTATTTGGG (site CAAGTGACTCC) | 0.0398
GTTCGAGCATGGACCGGTTTTCCCGGTAATCCGTATTTGCA (site GTACGAGCTTG) | 1.97
CAATGATCATGGACCGGTTTTCCCGGTAATCCGTATTTGAA (site CAATGCTCTTT) | 0.0913
ACCTTTCCATGGACCGGTTTTCCCGGTAATCCGTATTTGCT (site ACCTTTCCTAG) | 0
ACTTATGCATGGACCGGTTTTCCCGGTAATCCGTATTTGGA (site ATTTATGCTTC) | 0.623
ATTTAGACATGGACCGGTTTTCCCGGTAATCCGTATTTGGT (site ATTTAGACTAC) | 0.955
GAGCTCCCATGGACCGGTTTTCCCGGTAATCCGTATTTGAT (site GAGCTCTCTAT) | 2
TACTTCTCATGGACCGGTTTTCCCGGTAATCCGTATTTGTT (site TACTTCTCTAA) | 1.35
